From US20020035998A1, “Method for treatment of cancer and infectious disease” (priority 1995, published 2002)

Legend:
K562 target cells = assay: NK cell cytotoxicity (NKCC), 16-hour 51Cr-release assay against K562 target cells; assay type: cell-based, human; conditions: for NK cell cytotoxicity (NKCC) after treatment: serotonin 10^−4 M and/or IFN-α 25 U/ml, 16 h, 10^4 K562, mean ± SEM of six
Source text: (§1) MNC were obtained from peripheral venous blood from healthy human blood donors by Ficoll-Hypaque centrifuging, followed by Percoll density-gradient fractionation (Timonen and Saksela, 1980, J. Immunol. Methods 36, 285-291; Hellstrand and Hermodsson, 1990, Scand. J. Immunol. 31, 631-645).
(§2) The target cells used in these experiments were K562, an NK-cell sensitive erythroleukemic cell line, or Daudi, a relatively NK-insensitive EBV-transformed B-cell lymphoblastoid cell line.
(§3) The NKCC was determined six times as the specific ^51Cr-release for a NMNC: target-cell ratio of between 30:1 and 3.8:1 in two-fold dilution gradients. The suspensions of MNC/target cells were incubated in microplates at 37° C. for 6 hours (Daudi) or 16 hours (K562). The supernatant solution was then collected and examined for radioactivity in a gamma counter. The maximum ^51Cr-release was measured in target cell cultures treated with Triton X-100. The NKCC was calculated as the cell lysis % by the formula 100×(experimental release−spontaneous release/maximum release−spontaneous release)=cell lysis %.
A low-density Percoll fraction was separated by counterflow centrifuge elusion (CCE) in a monocyte and in a lymphocyte fraction. The monocyte fraction was concentrated to >90% purity whereupon the contaminating cells consisted of large lymphocytes. The lymphocyte fractions obtained by CCE contained <3% monocytes, determined by morphology and Leu-M3 (CD14) antigen expression. The lymphocytes were […], […] , CD3^+/16^−/56^− T cells (45-50%), CD3^+/16^+/56^+ cells (1-5%), determined by flow cytometry.
J The eluted monocytes and/or the NK cell-concentrated low-density lymphocytes were treated with IFN-α and histamine/serotonin. The compounds were added, separately or in combination, to mixtures of MNC and K562 target cells at the start of a 16-hour ^51Cr-release assay. The cytotoxicity against K562 in the NK cell-concentrated lymphocyte fraction was increased by IFN-α and unaffected by histamine or serotonin. […] The addition of eluted monocytes to the NK cell concentrated lymphocytes suppressed the baseline cytotoxicity to K562.
In the experiments reported in Table 1, eluted lymphocytes were mixed with monocytes as shown in the table, in a total volume of 150 μl. The data are NKCC (mean ±SEM) of six determinations. Serotonin 10^−4 M and/or IFN-α (25 U/ml) was added at the start of a 16-hour microcytotoxicity test against 10^4 K562 target cells.
(§4) In the results shown in Table 2, MNC from five different donors were used. All compounds were added to mixtures of MNC and target cells at the start of a 6 h (Daudi) or 16 h (K562) effecter and target cell incubation. The effecter cells were obtained from Percoll fractions 7-8, containing 33-55% monocytes.
Cells from the monocyte-containing Percoll fraction 8 were incubated with culture medium, histamine (10^−4 M) or serotonin (10^−4 M) in the presence of IFN-α (0-100 U/ml). The data shown are NKCC (cell lysis %; mean±SEM of six determinations). The compounds were added at the start of a 16 h microcytotoxicity test against K 562 target cells.

Daudi target cells = assay: NK cell cytotoxicity (NKCC), 6-hour 51Cr-release assay against Daudi target cells; assay type: cell-based, human; conditions: for NKCC after treatment with Medium: no IFN; for NKCC (cell lysis % ± SEM): named agent(s) only, no further additive: histamine, dimaprit, IFN-α 25 U/ml, Percoll fraction 8, around 40% monocytes; for NKCC (cell lysis % ± SEM) / influence on the effect of serotonin on NKCC: ranitidine 10^−4 M; for influence on the effect of serotonin on NKCC: ketanserin and ondansetron in equimolar concentrations; for potency and effect in intensifying baseline NKCC and restoring the NK cell's response to IFN-α: compared with serotonin, Table 4
Source text: as §1, §2, §3, §4
In the experiment shown in Table 3, culture medium (control), histamine (10^−4 M), dimaprit (10^−4 M), ranitidine (ran) (10^−4 M) and/or IFN-α (25 U/ml) were added at the start of a 6-hour ^51Cr release assay using Daudi target cells. The data are representative of three similar experiments. NKCC is given as mean cell lysis %±SEM of six determinations. The effecter cells were recovered from a low-density Percoll fraction 8, containing around 40% monocytes.
In the experiment shown in Table 4, culture medium (control), serotonin, 8-OH-DPAT (+)-ALK and/or IFN-α (25 U/ml) were added at the start of a 6-hour ^51Cr-release assay against Daudi target cells. The NKCC is given as cell lysis %±SEM of six determinations. The effector cells were recovered from the low-density Percoll fraction 7, containing around 36% monocytes.

[1] = mixtures of eluted monocytes and NK cell-enriched lymphocytes
[2] = agonist 10^−4 M plus IFN-α 25 U/ml, Daudi 6 h, Percoll fraction 7
[3] = agonist 10^−4 M, Daudi 6 h, Percoll fraction 7, around 36% monocytes

## NCCc1c[nH]c2ccc(O)cc12 [Serotonin, serotonin]
K562 target cells; eluted lymphocytes without monocytes, 16-hour assay
  cytotoxicity against K562 in the NK cell-concentrated lymphocyte fraction: unaffected
K562 target cells; [1]
  basal cytotoxicity of lymphocytes in mixtures of monocytes and lymphocytes: restored
  monocyte induced inhibition of the NK cell response to IFN-α: eliminated
K562 target cells; monocytes 0, lymphocytes 12 (×10^−4)
  NK cell cytotoxicity (NKCC) after treatment: 34 ± 3%
K562 target cells; monocytes 6, lymphocytes 12 (×10^−4)
  NK cell cytotoxicity (NKCC) after treatment: 31 ± 2%
K562 target cells; monocytes 12, lymphocytes 12 (×10^−4)
  NK cell cytotoxicity (NKCC) after treatment: 31 ± 2%
Daudi target cells; [2]
  NKCC after treatment with IFN: 44.3 ± 1%
Daudi target cells; [3]
  NKCC after treatment with Medium: 10.4 ± 1%
Daudi target cells; agonist 10^−5 M plus IFN-α 25 U/ml, Daudi 6 h, Percoll fraction 7
  NKCC after treatment with IFN: 33.2 ± 1%
Daudi target cells; agonist 10^−5 M, Daudi 6 h, Percoll fraction 7
  NKCC after treatment with Medium: 4.5 ± 0.3%
Daudi target cells; agonist 10^−6 M plus IFN-α 25 U/ml, Daudi 6 h, Percoll fraction 7
  NKCC after treatment with IFN: 12.3 ± 1%
Daudi target cells; agonist 10^−6 M, Daudi 6 h, Percoll fraction 7
  NKCC after treatment with Medium: 2.2 ± 0.4%

## CNC(=C[N+](=O)[O-])NCCSCc1ccc(CN(C)C)o1 [Ran, ranitidine, reference compound]
Daudi target cells; Daudi 6 h
  NKCC (cell lysis % ± SEM): 0.0 ± 0.1%

## O=C(c1ccc(F)cc1)C1CCN(CCn2c(=O)[nH]c3ccccc3c2=O)CC1 [Ketanserin, reference compound]
Daudi target cells
  influence on the effect of serotonin on NKCC: did not influence the effect of serotonin

## CN(C)CCCSC(=N)N [Dimaprit, dimaprit, reference compound]
Daudi target cells; agonist 10^−4 M plus IFN-α 25 U/ml, Daudi 6 h, Percoll fraction 8
  NKCC (Cell Lysis %) ± SEM after treatment with IFN: 32.6 ± 1%
Daudi target cells; agonist 10^−4 M plus ranitidine 10^−4 M plus IFN-α 25 U/ml, Daudi 6 h, Percoll fraction 8
  NKCC (Cell Lysis %) ± SEM after treatment with Ran + IFN: 0.5 ± 0.5%
Daudi target cells; agonist 10^−4 M plus ranitidine 10^−4 M, Daudi 6 h, Percoll fraction 8
  NKCC (Cell Lysis %) ± SEM after treatment with Ran: 0.4 ± 0.4%
Daudi target cells; Daudi 6 h
  NKCC (cell lysis % ± SEM): 6.4 ± 1%
Daudi target cells; simultaneous treatment, Table 3
  effect of histamine on monocyte-induced suppression of resting and IFN-α-activated NK cells: influence of the agent: imitated

## Cc1nccn1CC1CCc2c(c3ccccc3n2C)C1=O (centres unmarked) [ondansetron, reference compound]
Daudi target cells
  influence on the effect of serotonin on NKCC: did not influence the effect of serotonin

## CCCN(CCC)C1CCc2cccc(O)c2C1 (centres unmarked) [8-OH-DPAT, 8-hydroxy-2-(di-n-propylamino)tetralin, reference compound]
Daudi target cells; [2]
  NKCC after treatment with IFN: 43.3 ± 1%
Daudi target cells; [3]
  NKCC after treatment with Medium: 8.8 ± 1%
Daudi target cells
  potency and effect in intensifying baseline NKCC and restoring the NK cell's response to IFN-α: comparable to that of serotonin

## CCCN(CCC)[C@H]1CCc2cccc(O)c2[C@H]1C (relative stereo) [(+)-ALK-3, cis-8-hydroxy-1-methyl-2-(di-n-propylamino)tetralin, reference compound]
Daudi target cells; [2]
  NKCC after treatment with IFN: 40.4 ± 1%
Daudi target cells; [3]
  NKCC after treatment with Medium: 9.1 ± 1%
Daudi target cells
  potency and effect in intensifying baseline NKCC and restoring the NK cell's response to IFN-α: comparable to that of serotonin
